Test results published in publication PMC6008489 (Bioorganic & Medicinal Chemistry, 2018).

Key:
PKD2 = biological target: T1, PKD2 (Homo sapiens, UniProt Q9BZL6); assay: 26-kinase panel mobility shift assay, single concentration; format: biochemical; settings: read-out: % Inhibition PKD2
T1 construct: purchased Perkin Elmer (ProfilerPro assay kit 1)
T1 sequence (Q9BZL6 1-878): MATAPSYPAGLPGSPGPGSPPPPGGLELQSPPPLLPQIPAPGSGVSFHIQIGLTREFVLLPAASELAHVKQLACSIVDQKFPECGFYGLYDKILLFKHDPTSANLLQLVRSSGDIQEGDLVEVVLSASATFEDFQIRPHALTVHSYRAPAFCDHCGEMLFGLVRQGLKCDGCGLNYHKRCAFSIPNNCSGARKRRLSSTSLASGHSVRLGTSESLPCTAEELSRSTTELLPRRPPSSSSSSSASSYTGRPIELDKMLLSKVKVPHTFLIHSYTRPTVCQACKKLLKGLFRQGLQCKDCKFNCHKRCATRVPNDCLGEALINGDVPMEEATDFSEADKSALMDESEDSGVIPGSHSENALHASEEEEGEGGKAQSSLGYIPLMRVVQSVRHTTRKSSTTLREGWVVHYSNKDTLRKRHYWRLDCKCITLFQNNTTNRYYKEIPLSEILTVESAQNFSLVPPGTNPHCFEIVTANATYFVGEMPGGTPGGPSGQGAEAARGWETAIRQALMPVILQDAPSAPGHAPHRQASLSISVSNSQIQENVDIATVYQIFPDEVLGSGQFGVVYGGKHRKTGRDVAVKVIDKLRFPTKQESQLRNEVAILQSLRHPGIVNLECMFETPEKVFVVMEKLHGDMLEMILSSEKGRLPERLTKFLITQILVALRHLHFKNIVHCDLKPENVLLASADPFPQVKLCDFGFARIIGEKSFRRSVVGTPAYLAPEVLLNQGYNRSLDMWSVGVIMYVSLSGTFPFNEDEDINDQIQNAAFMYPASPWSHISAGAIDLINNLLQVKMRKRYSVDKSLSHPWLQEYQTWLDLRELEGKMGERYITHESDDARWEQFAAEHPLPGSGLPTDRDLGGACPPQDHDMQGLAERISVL
Description: In order to test the biochemical activity of our fragment library, a panel of 26 structurally diverse protein kinases was used.
Screening of 26 kinases using a mobility shift assay
A mobility shift assay to determine kinase inhibition was carried out using a
modified version of the ProfilerPro assay kit 1 (Perkin Elmer, Coventry, UK)
including MPS1 and Aurora B. Each kit contained an enzyme plate, a substrate
plate, reconstitution buffer, 1 M DTT, protease inhibitor cocktail and termination
buffer. Test compounds were added as a solution in DMSO.
peptide phosphorylation assay was carried out as per the manufacturer’s
instructions. The electrophoretic separation and analysis of the phosphorylated
and non-phosphorylated peptides was carried out on a 4-sipper chip using a
LabChip EZReader II (Perkin Elmer). Results were expressed as % inhibition of
peptide phosphorylation relative to control wells for 0 % (no test compound) and
100 % (no ATP) inhibition. The percentage inhibition was calculated using the
% Inhibition = [1 - (% Conversion Sample / % Conversion 0% Inhibition Control)] x 100

[1] = Solubility as noted for the kinase panel screen; format: physicochemical; settings: reason for screening at 30 µM instead of 100 µM

SMILES: CN1CCN(c2ccc(C(=O)Nc3cc(-c4ccncc4)c[nH]c3=O)cc2)CC1 [Compound 22]
- inhibition at 30 µM (PKD2): 46%
- solubility (in words) [1]: poor solubility

SMILES: Nc1ccc[nH]c1=O [Compound 1, 3-aminopyridin-2-one]
- inhibition at 100 µM (PKD2): 10%

SMILES: COc1ncc(-c2ccncc2)cc1N [Compound 5, 6-Methoxy-3,4′-bipyridin-5-amine]
- inhibition at 100 µM (PKD2): 26%

SMILES: Cc1nc(O)c(N)cc1-c1ccncc1 [Compound 15, 3-Amino-6-methyl-5-(pyridin-4-yl)pyridin-2-one]
- inhibition at 100 µM (PKD2): 8%

SMILES: Nc1cc(-c2ccnc3ccccc23)c[nH]c1=O [Compound 6]
- inhibition at 100 µM (PKD2): 36%

SMILES: O=C(Nc1cc(-c2ccnc(NC3CC3)n2)c[nH]c1=O)c1ccccc1 [Compound 24]
- inhibition at 30 µM (PKD2): 69%
- solubility (in words) [1]: poor solubility

SMILES: Nc1cc(-c2ccnc(NC3CC3)n2)c[nH]c1=O [Compound 8]
- inhibition at 100 µM (PKD2): 81%

SMILES: O=C(Nc1cc(-c2ccncc2)c[nH]c1=O)c1ccccc1 [Compound 16, N-(2-Oxo-5-(pyridin-4-yl)-1,2-dihydropyridin-3-yl)benzamide]
- inhibition at 30 µM (PKD2): 30%
- solubility (in words) [1]: poor solubility

SMILES: Cn1cc(-c2c[nH]c(=O)c(N)c2)cn1 [Compound 2, 3-Amino-5-(1-methyl-1H-pyrazol-4-yl)pyridin-2(1H)-one]
- inhibition at 100 µM (PKD2): 67%
- melting point: 264 °C

SMILES: CNc1nccc(-c2c[nH]c(=O)c(N)c2)n1 [Compound 7]
- inhibition at 100 µM (PKD2): 70%
